Measured values as given in patent US20260262643A1, “HERBICIDAL BENZOXAZINES” (FMC CORPORATION, priority 2022, published 2026).

Tests used:
oat, wild [1] = experiment: Test C preemergence; format: in vivo, Avena fatua
In short: (§1)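 Greenhouse herbicide screen, 10-day duration. Test chemicals in solvent/surfactant blend were sprayed onto soil at sowing (pre) or onto 2–10 cm seedlings at one to two leaves (post); injury scored visually against controls, 0 no effect to 100 complete control.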

corn [2] = experiment: Test C preemergence; format: in vivo, Zea mays
In short: as §1

barnyardgrass [3] = experiment: Test C postemergence; format: in vivo, Echinochloa crusgalli; details: 10 days, 0 to 100 scale (0 no effect, 100 complete control)
In short: as §1

horseweed = experiment: Test C postemergence; format: in vivo, Erigeron canadensis; details: 10 days, 0 to 100 scale (0 no effect, 100 complete control)
In short: as §1

wheat [4] = experiment: Test C postemergence; format: in vivo, Triticum aestivum; details: 10 days, 0 to 100 scale (0 no effect, 100 complete control)
In short: as §1

corn [5] = experiment: Test C postemergence; format: in vivo, Zea mays; details: 10 days, 0 to 100 scale (0 no effect, 100 complete control)
In short: as §1

ducksalad = experiment: Test D flooded paddy test; format: in vivo, Heteranthera limosa; details: 250 g ai/ha, applied to paddy water, visual rating after 13 to 14 days, scale 0 to 100 (0 no effect, 100 complete control)
In short: (§2)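 Rating scale 0–100 (0 no effect, 100 complete control), visual, versus controls. Readout at 13–14 days after in-water application to 2-leaf plants in pots flooded 3 cm deep.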

ryegrass, Italian [6] = experiment: Test C preemergence; format: in vivo, Lolium multiflorum
In short: as §1

pigweed, palmer [7] = experiment: Test C preemergence; format: in vivo, Amaranthus palmeri
In short: as §1

green foxtail [8] = experiment: Test C preemergence; format: in vivo, Setaria viridis
In short: as §1

ragweed [9] = experiment: Test C preemergence; format: in vivo, Ambrosia artemisiifolia
In short: as §1

green foxtail [10] = experiment: Test C postemergence; format: in vivo, Setaria viridis; details: 10 days, 0 to 100 scale (0 no effect, 100 complete control)
In short: as §1

pigweed, palmer [11] = experiment: Test C postemergence; format: in vivo, Amaranthus palmeri; details: 10 days, 0 to 100 scale (0 no effect, 100 complete control)
In short: as §1

soybean [12] = experiment: Test C preemergence; format: in vivo, Glycine max
In short: as §1

ryegrass, Italian [13] = experiment: Test C postemergence; format: in vivo, Lolium multiflorum; details: 10 days, 0 to 100 scale (0 no effect, 100 complete control)
In short: as §1

galium = experiment: Test C postemergence; format: in vivo, Galium aparine; details: 10 days, 0 to 100 scale (0 no effect, 100 complete control)
In short: as §1

rice = experiment: Test D flooded paddy test; format: in vivo, Oryza sativa; details: 250 g ai/ha, applied to paddy water, visual rating after 13 to 14 days, scale 0 to 100 (0 no effect, 100 complete control)
In short: as §2

soybean [14] = experiment: Test C postemergence; format: in vivo, Glycine max; details: 10 days, 0 to 100 scale (0 no effect, 100 complete control)
In short: as §1

oat, wild [15] = experiment: Test C postemergence; format: in vivo, Avena fatua; details: 10 days, 0 to 100 scale (0 no effect, 100 complete control)
In short: as §1

blackgrass [16] = experiment: Test C postemergence; format: in vivo, Alopecurus myosuroides; details: 10 days, 0 to 100 scale (0 no effect, 100 complete control)
In short: as §1

kochia [17] = experiment: Test C preemergence; format: in vivo, Bassia scoparia
In short: as §1

barnyardgrass [18] = experiment: Test D flooded paddy test; format: in vivo, Echinochloa crus-galli; details: 250 g ai/ha, applied to paddy water, visual rating after 13 to 14 days, scale 0 to 100 (0 no effect, 100 complete control)
In short: as §2

kochia [19] = experiment: Test C postemergence; format: in vivo, Bassia scoparia; details: 10 days, 0 to 100 scale (0 no effect, 100 complete control)
In short: as §1

wheat [20] = experiment: Test C preemergence; format: in vivo, Triticum aestivum
In short: as §1

blackgrass [21] = experiment: Test C preemergence; format: in vivo, Alopecurus myosuroides
In short: as §1

barnyardgrass [22] = experiment: Test C preemergence; format: in vivo, Echinochloa crusgalli
In short: as §1

sedge, umbrella = experiment: Test D flooded paddy test; format: in vivo, Cyperus difformis; details: 250 g ai/ha, applied to paddy water, visual rating after 13 to 14 days, scale 0 to 100 (0 no effect, 100 complete control)
In short: as §2

ragweed [23] = experiment: Test C postemergence; format: in vivo, Ambrosia artemisiifolia; details: 10 days, 0 to 100 scale (0 no effect, 100 complete control)
In short: as §1

[24] = 500 g ai/ha, preemergence, 0 to 100 scale (0 no effect, 100 complete control)
[25] = Preemergence, 125 g ai/ha, 0 to 100 scale, 0 no effect, 100 complete control

COC(C)(C)c1ncn(-c2ccc(C)c(C(=O)N3C[C@H](C)Oc4c(Cl)cccc43)c2)n1 [Compound 343]
60: Corn plant response rating (corn [2]; [24]) | Plant response rating, Wheat (wheat [4]; 500 g ai/ha, postemergence) | Plant response rating, Oat, Wild (oat, wild [15]; Postemergence, 125 g ai/ha) | Plant response rating, Ragweed (ragweed [23]; Postemergence, 125 g ai/ha)
70: Plant response rating, Barnyardgrass (barnyardgrass [3]; 500 g ai/ha, postemergence) | Ragweed plant response rating (ragweed [9]; [24]) | Plant response rating, Ryegrass, Italian (ryegrass, Italian [13]; Postemergence, 125 g ai/ha)
65: Plant response rating, Sedge, Umbrella (Flood) (sedge, umbrella)
90: Oat, Wild plant response rating (oat, wild [1]; [24]) | Plant response rating, Oat, Wild (oat, wild [1]; [25]) | Plant response rating, Corn (corn [5]; Postemergence, 125 g ai/ha) | Plant response rating, Foxtail, Green (green foxtail [10]; 500 g ai/ha, postemergence) | Plant response rating, Ryegrass, Italian (ryegrass, Italian [13]; 500 g ai/ha, postemergence) | Plant response rating, Oat, Wild (oat, wild [15]; 500 g ai/ha, postemergence) | Plant response rating, Blackgrass (blackgrass [16]; 500 g ai/ha, postemergence) | Plant response rating, Kochia (kochia [17]; [25]) | Plant response rating, Kochia (kochia [19]; 500 g ai/ha, postemergence) | Wheat plant response rating (wheat [20]; [24]) | Blackgrass plant response rating (blackgrass [21]; [24])
35: Plant response rating, Barnyardgrass (Flood) (barnyardgrass [18])
40: Plant response rating, Corn (corn [2]; [25]) | Plant response rating, Blackgrass (blackgrass [16]; Postemergence, 125 g ai/ha)
80: Plant response rating, Horseweed (horseweed; 500 g ai/ha, postemergence) | Plant response rating, Kochia (kochia [19]; Postemergence, 125 g ai/ha) | Plant response rating, Ragweed (ragweed [23]; 500 g ai/ha, postemergence)
45: Plant response rating, Ducksalad (Flood) (ducksalad)
15: Plant response rating, Rice (Flood) (rice)
30: Plant response rating, Horseweed (horseweed; Postemergence, 125 g ai/ha) | Plant response rating, Ragweed (ragweed [9]; [25]) | Plant response rating, Soybean (soybean [12]; [25]) | Plant response rating, Wheat (wheat [20]; [25])
20: Plant response rating, Barnyardgrass (barnyardgrass [3]; Postemergence, 125 g ai/ha) | Plant response rating, Wheat (wheat [4]; Postemergence, 125 g ai/ha)
100: Plant response rating, Corn (corn [5]; 500 g ai/ha, postemergence) | Ryegrass, Italian plant response rating (ryegrass, Italian [6]; [24]) | Plant response rating, Ryegrass, Italian (ryegrass, Italian [6]; [25]) | Pigweed, Palmer plant response rating (pigweed, palmer [7]; [24]) | Plant response rating, Pigweed, Palmer (pigweed, palmer [7]; [25]) | Foxtail, Green plant response rating (green foxtail [8]; [24]) | Plant response rating, Foxtail, Green (green foxtail [8]; [25]) | Plant response rating, Pigweed, Palmer (pigweed, palmer [11]; 500 g ai/ha, postemergence) | Soybean plant response rating (soybean [12]; [24]) | Plant response rating, Galium (galium; 500 g ai/ha, postemergence) | Plant response rating, Galium (galium; Postemergence, 125 g ai/ha) | Plant response rating, Soybean (soybean [14]; 500 g ai/ha, postemergence) | Plant response rating, Soybean (soybean [14]; Postemergence, 125 g ai/ha) | Kochia plant response rating (kochia [17]; [24]) | Barnyardgrass plant response rating (barnyardgrass [22]; [24]) | Plant response rating, Barnyardgrass (barnyardgrass [22]; [25])
50: Plant response rating, Foxtail, Green (green foxtail [10]; Postemergence, 125 g ai/ha) | Plant response rating, Pigweed, Palmer (pigweed, palmer [11]; Postemergence, 125 g ai/ha) | Plant response rating, Blackgrass (blackgrass [21]; [25])
